Measurements as given in patent publication US20210246140A1, “MODULATORS OF METABOTROPIC GLUTAMATE RECEPTOR 2” (The General Hospital Corporation, priority 2020, published 2021).
Each block holds one molecule with its values, some of them ahead of it.

Assays:
[1] = molecular target: mGluR2 in rat brain (Rattus norvegicus, UniProt P31421); assay: In vivo PET imaging of [11C]1 in rat brain with blocking studies
Experimental: The rats were adjusted into the scanner for imaging position (Triumph II Preclinical Imaging System, Trifoil Imaging, LLC, Northridge, Calif.). The vital signs such as heart rate and/or breathing were monitored throughout the imaging. […] The “cold” compounds were administered (i.v., 4 mg/kg) 10 min before the radioactivity. CT scan was performed after every PET imaging study to obtain anatomical information and correction for attenuation. […] The ROIs, i.e., whole brain, thalamus, cerebellum, striatum, and cortex, were drawn onto coronal PET slices according to the brain outlines as derived from the rat brain atlas and corresponding TACs (time-activity curves) were created by PMOD 3.2 (PMOD Technologies Ltd., Zurich, Switzerland). Percent changes between the control and blocking studies were calculated in the selected brain areas at the 10-30 min time window after injection of [^11C]1.
The characterization of [11C]1 was conducted with rat (male Sprague-Dawley) studies. […] The rats were adjusted into the scanner for imaging position (Triumph II, Trifoil Imaging Inc, Northridge, Calif.). The vital signs such as heart rate and/or breathing were monitored throughout the imaging. […] When the blocking studies were done the imaging procedures started with the baseline study using [^11C]1 followed by 2 hrs later the blocking agent and another administration of [^11C]1 in the same animal. The blocking agent was administered intravenously 2 min before injection of the second [^11C]1 if self-blocking, 10 min before [^11C]1 if blocking was with JNJ The dynamic PET data was acquired starting from the injection of radioactivity and continued for 60 min. After the dynamic PET data acquisition CT imaging was done to obtain data for attenuation as well as anatomical information of the brain. […] Percent changes between the control and blocking studies were calculated in all brain areas. […]

[2] = Ex vivo whole body biodistribution of [11C]1; type: in vivo, Sprague Dawley rats
Experimental: The quantitative biodistribution of [^11C]1 was done using 16 healthy Sprague Dawley rats (weight 330-370 g). After anesthetization (2% isoflurane with oxygen flow of 1.5 L/min) the rats were administrated with the [^11C]1 (30-42 MBq (0.81-1.14 mCi) using tail vein injection and sacrificed by decapitation at the time points 5, 20, 30 or 40 min after administration of the radioactivity. The tissue samples including blood, midbrain, cerebellum, cortex, lung, heart, liver, spleen, kidney and muscle were rapidly collected into pre-weighted gamma-counting tubes and measured with standards (samples of [^11C]1) using PerkinElmer Wizard2 2480 gamma-counter. Tubes were weighted, and the net mass of the tissue samples was determined and the percent of the injected radioactivity (% ID/g) in the samples was calculated.
The ex vivo biodistribution was performed in 16 normal male Sprague Dawley rats after intravenous injection of [^11C]1 at several time points (5, 20, 30 and 40 min). The uptake value is expressed in the unit of % ID/g. […] The highest accumulation was measured in the liver (2.73±0.02% ID/g) followed by kidney (1.05±0.07% ID/g), spleen (0.67±0.05% ID/g), lung (0.59±0.04% ID/g), and heart (0.58±0.05% ID/g). […] The average accumulation of [^11C]1 in the rat brain at 5 min was (0.49±0.07% ID/g) (FIG. 22).

[3] = Determination of Log P; type: physicochemical; conditions: experimental lipophilicity
Experimental: Determination of Log P The Log P was determined using a reversed-phase HPLC method. First, seven reference compounds were examined to obtain the linear regression of the log P against the log of capacity factors by the expression: log Pow=a+b*log k. The Log P of these reference compounds was already been determined. The capacity factor k was calculated by the expression: k=(tR−t0)/t0. The retention time tR of test compound was determined on the HPLC (Agilent 1260 infinity II LC System, XTerra™ MS Cis 5μ 2.1×250 mm, methanol/water=75/25, 0.25 mL/min). The dead-time to was measured by using thiourea. The linear regression equation of the Log P against the log of capacity factors was generated in Excel: log Pow=3.049+2.429*log k, where R^2 was 0.9964. The retention time of compound 1, 2, and 7 was also determined on the HPLC under the same condition and each test was repeated three times (FIG. 5).
(§1) The experimental lipophilicity was measured by using liquid-liquid partition between n-octanol and water (“shake-flask method”) [see ref. 54]. […] The plasma protein binding comprises compounds' binding to albumin, α1-acid glycoprotein and lipoproteins once delivered to the bloodstream. This property was evaluated for compounds 1 and 2 by equilibrium dialysis [see ref. 56], where two chambers were separated by a dialysis membrane (MWCO 8 kD). The plasma protein bindings of 1 and 2 are 87.2% and 88.7%, respectively (see FIGS. 20 and 6). Therefore, the high plasma free fraction of compounds 1 and 2 (>10%) would allow enough free drug concentration in blood stream to reach the brain targets.

[4] = Plasma protein binding assay (equilibrium dialysis, RED device); type: in vitro ADME; conditions: rat plasma
Experimental: Disposable RED device inserts (product 90006) were from Thermos Scientific (Waltham, Mass.). Each insert was made of two side-by-side chambers separated by a vertical cylinder of dialysis membrane (MWCO 8,000) validated for minimal non-specific binding. A stock solution of the test compound in DMSO was spiked into the rat plasma to reach a concentration of 10 μM. 400 μL of sample solution was placed into the sample chamber of the RED device, and 600 μL of phosphate-buffered saline (PBS) was added to the buffer chamber of the RED device. Samples were prepared in triplicates. The plate was covered with aluminum sealing cover and incubated at 37° C. on an orbital shaker at approximately 200 rpm for 5 h. After incubation, 300 μL of post-dialysis samples from the buffer and sample chambers were transferred to different microcentrifuge tubes. To the buffer sample was added 300 μL of plasma, and an equal volume of buffer was added to the collected plasma sample. 600 μL of cold acetonitrile was added to the samples, and the samples were vortexed and incubated for 30 min on ice and then were centrifuged at 14000 rpm for 10 min. Supernatant was transferred to vial for HPLC analysis (XTerra™ MS C18 5μ, 2.1×250 mm column; Gradient elution from 5% to 90% B in 30 min; 0.1 M ammonium formate in water (A) and acetonitrile (B); UV 254 nm; 100 μL of injection volume). The percentage of the test bound compound was calculated as % Free=(Concentration in buffer chamber/Concentration in plasma chamber)×100%; % Bound=100%−% Free (FIG. 6).
as §1

[5] = Plasma stability in rat serum; type: in vitro ADME; conditions: 37° C., diltiazem as positive control
Experimental: Compound stability in rat serum was examined using a published method. [See ref. 57] Rat serum (100 μL, Abeam, Inc, No. ab7488) and test compound or control compound (2.5 μL, 1 mM in DMSO) was added to the individual tube. The tube was vortexed and incubated at 37° C. During the incubation, aliquots of 50 μL samples were quenched with ice-cold acetonitrile at 0, 15, 30, 60, and 120 min time points, respectively. After mixing, the quenched samples were centrifuged, and the supernatant was withdrawn for analysis by HPLC (Agilent 1260 infinity II LC System, XTerra™ MS C18, 5μ, 2.1×250 mm, 20 mM ammonium formate (A)/acetonitrile (B), 0.25 mL/min, gradient of 5% to 100% B). The samples were assayed at least three times. Compound 1-OH was used as internal standard while diltiazem was used as a positive control. The percentage remaining was calculated by (peak area at the specific time point)/(peak area at 0 min)×100% (FIG. 7).
(§2) The in vitro plasma and liver microsomal stability of 1 and 2 were studied by incubating the test compounds in rat serum and rat liver microsomes as well as NADPH cofactor, respectively, using previously published methods [see refs. 57, 58]. […] The solution stability of 1 was evaluated with buffer solutions at pH 5.0, 7.4 and 9.4, respectively (FIGS. 10 and 20) [see refs. 61].

[6] = molecular target: T1, mGluR2 (Homo sapiens, UniProt Q14416); conditions: calcium flux, Gα15 or Gα16 forced coupling; read-out: previously reported mGluR2 EC50; cited from earlier work
T1 construct: expressed in transfected cells

[7] = Microsomal stability in rat liver microsomes; type: in vitro ADME; conditions: rat liver microsomes with NADPH, ML128 as positive control
Experimental: Compound stability in rat liver microsomal was tested using a published method. [see refs. 57, 58] In a vial 1.5 μL of test compound (1 mM in DMSO stock solution) was mixed with 432 μL of PBS (50 mM, pH 7.4). The mixture was kept at 37° C. for 10 min before adding 13 μL of Sprague-Dawley rat liver microsomes (Sigma-Aldrich, No. M9066). The vial was vortexed and shaken at 37° C. for 5 min, followed by addition of 50 μL of NADPH (10 mM in PBS stock solution) to start the reaction. The mixture was incubated at 37° C. for 0, 5, 15, 30, 45 min, respectively, and quenched by addition of 250 μL of ice-cold acetonitrile and 3 μL of the internal standard (0.5 mM in DMSO). The quenched solutions were centrifuged at 10,000 g for 15 min. The supernatant was collected and quantitated by RP-HPLC (Phenomenex Luna® column 5 μC18, 100 Å, 250×4.6 mm; 0.7 mL/min, 15 min, Acetonitrile/water/0.1% FA). The procedure was repeated three times for each compound. Compound 1-OH was used as internal standard and compound ML128 served as positive control. The percentage of remaining intact test-compound was calculated by (peak area at the specific time point)/(peak area at 0 min)×100%. Each procedure was repeated three times (FIGS. 8 and 9). For FIG. 8, the natural logarithm (In) of peak area ratio (test compound peak area/internal standard peak area) was plotted against time and the gradient of the line was determined. Subsequently, the half-life (t1/2) min was calculated as 0.693/k, where the elimination rate constant (k) equals to negative gradient. V (μL/mg) was obtained as a ratio of volume of incubation (μL)/protein in the incubation (mg). Finally, the intrinsic clearance (CLint) (μL/min/mg protein) was calculated as V×0.693/t1/2.
as §2

[8] = molecular target: recombinant human P-gp (Homo sapiens, UniProt P08183); assay: P-gp ATPase assay (Pgp-Glo assay); type: biochemical; conditions: human P-gp membrane, verapamil as positive control
Experimental: P-gp ATPase activity was measured with the Pgp-Glo™ assay system with human P-gp membrane by following the manufacturer's instructions (Promega, Co. USA). The assay relies on the ATP dependence of the light-generating reaction of firefly luciferase. Briefly, 25 μg of P-gp membrane was incubated at 37° C. with one of these samples including Na3VO4 (100 μM), solvent control (0.1% DMSO), quercetin (100 μM), the test compound (200 μM), verapamil (100 μM), verapamil (100 μM) plus the test compound (100 μM). The ATPase reaction was initiated by addition of MgATP (5 mM) and followed by incubation for 40 min at 37° C. The reaction was stopped, and the remaining unmetabolized ATP was detected as a luciferase-generated luminescence signal by addition of ATP detection reagent. Following a room-temperature signal-stabilization period (20 min), luminescence was read on a Veritas microplate luminometer (Tuner Designs, San Francisco, Calif.). P-gp ATPase activity was presented as a drop-in luminescence of samples compared to that treated with Na3VO4.
We further evaluated compounds 1, 2, and 7 using Pgp-Go™ assay to investigate whether the brain penetration will be affected by P-glycoprotein (P-gp) efflux transporter. The Pgp-Go™ assay [see ref. 63] was carried out on recombinant human P-gp in a cell membrane fraction. […]

Chain of mGluR2 in rat brain (P31421 19-872): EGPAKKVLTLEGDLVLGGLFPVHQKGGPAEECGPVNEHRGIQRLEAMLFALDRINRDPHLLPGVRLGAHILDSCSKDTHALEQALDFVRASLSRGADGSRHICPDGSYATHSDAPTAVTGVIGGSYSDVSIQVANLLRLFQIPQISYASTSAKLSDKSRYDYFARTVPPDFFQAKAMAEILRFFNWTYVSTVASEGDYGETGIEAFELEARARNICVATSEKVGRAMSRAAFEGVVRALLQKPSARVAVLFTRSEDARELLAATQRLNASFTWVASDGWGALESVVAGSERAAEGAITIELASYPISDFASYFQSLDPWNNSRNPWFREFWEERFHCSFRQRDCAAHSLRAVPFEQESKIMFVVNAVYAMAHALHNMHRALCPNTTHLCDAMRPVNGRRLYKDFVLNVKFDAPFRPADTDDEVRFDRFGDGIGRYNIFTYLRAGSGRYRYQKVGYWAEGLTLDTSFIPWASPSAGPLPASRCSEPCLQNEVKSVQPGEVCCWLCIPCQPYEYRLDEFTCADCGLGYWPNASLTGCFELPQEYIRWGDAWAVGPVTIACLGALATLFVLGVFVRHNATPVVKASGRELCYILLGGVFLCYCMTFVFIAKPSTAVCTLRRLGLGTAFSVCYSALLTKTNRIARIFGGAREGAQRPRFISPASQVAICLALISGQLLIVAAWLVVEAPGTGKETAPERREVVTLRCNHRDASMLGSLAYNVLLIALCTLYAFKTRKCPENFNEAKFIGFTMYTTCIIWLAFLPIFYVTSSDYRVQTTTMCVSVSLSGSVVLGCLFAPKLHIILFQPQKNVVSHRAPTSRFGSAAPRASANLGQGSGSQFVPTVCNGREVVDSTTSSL
Chain of recombinant human P-gp (P08183 whole entry): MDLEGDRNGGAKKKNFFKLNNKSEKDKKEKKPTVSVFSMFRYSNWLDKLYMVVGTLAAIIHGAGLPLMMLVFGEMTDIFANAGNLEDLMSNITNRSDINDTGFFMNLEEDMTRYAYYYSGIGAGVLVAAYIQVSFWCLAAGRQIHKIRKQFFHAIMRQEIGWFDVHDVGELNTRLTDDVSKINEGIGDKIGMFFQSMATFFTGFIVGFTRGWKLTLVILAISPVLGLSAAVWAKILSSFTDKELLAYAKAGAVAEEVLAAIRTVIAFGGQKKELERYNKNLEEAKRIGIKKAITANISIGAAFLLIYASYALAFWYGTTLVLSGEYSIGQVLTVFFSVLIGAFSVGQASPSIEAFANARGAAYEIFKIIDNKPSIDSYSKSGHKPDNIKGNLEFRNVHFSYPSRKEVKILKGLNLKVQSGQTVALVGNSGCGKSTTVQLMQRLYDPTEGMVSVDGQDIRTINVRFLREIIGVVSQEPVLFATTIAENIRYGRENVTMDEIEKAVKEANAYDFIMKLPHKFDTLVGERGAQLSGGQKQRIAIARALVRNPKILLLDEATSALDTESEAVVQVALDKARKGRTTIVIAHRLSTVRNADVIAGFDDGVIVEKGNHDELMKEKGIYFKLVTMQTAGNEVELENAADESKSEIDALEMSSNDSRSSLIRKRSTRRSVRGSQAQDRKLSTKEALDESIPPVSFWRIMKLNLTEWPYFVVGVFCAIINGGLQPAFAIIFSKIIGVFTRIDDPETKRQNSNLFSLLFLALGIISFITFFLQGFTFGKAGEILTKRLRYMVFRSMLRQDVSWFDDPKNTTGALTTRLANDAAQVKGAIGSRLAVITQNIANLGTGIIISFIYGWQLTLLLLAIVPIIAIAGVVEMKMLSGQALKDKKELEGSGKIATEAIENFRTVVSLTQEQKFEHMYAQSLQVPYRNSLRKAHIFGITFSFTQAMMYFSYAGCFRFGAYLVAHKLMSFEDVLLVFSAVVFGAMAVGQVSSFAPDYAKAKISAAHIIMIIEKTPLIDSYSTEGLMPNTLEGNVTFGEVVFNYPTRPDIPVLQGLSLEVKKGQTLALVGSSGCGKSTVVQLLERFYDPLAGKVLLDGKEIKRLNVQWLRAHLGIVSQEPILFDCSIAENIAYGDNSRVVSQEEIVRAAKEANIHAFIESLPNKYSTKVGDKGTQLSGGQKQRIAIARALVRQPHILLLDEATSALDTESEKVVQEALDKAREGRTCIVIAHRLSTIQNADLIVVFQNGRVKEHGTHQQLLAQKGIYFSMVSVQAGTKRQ
T1 sequence (Q14416 19-872): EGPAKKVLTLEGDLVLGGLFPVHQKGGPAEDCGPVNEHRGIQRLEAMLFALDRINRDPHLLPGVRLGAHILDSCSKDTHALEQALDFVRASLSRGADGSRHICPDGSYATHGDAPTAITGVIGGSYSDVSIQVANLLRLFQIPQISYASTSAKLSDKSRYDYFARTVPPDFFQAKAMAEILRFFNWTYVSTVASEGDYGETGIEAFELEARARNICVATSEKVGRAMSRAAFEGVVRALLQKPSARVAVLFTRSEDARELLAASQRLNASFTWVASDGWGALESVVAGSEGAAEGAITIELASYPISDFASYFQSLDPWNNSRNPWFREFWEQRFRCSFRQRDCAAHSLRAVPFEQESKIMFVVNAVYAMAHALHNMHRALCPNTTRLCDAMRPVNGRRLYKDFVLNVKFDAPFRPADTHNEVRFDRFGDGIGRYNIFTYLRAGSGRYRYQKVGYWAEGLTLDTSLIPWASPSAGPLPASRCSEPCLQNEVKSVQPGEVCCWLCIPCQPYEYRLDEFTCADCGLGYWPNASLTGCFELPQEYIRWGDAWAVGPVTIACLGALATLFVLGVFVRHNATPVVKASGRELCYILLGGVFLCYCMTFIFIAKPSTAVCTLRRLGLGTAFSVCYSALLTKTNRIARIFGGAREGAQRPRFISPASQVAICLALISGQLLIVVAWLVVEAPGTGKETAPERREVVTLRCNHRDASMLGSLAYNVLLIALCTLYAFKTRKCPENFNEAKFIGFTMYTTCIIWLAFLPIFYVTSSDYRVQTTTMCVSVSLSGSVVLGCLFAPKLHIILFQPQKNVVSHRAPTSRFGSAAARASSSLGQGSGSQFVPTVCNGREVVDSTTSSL

- decrease of [11C]1 uptake in different brain areas after pretreatment ([1]; 4 mg/kg i.v. 10 min before [11C]1, 10-30 min time window): 28-37%
SMILES: Fc1ccc(N2CCN(Cc3ccn4c(CC5CC5)nnc4c3C(F)(F)F)CC2)c(F)c1 [Compound 3, 8-Trifluoromethyl-3-cyclopropylmethyl-7-[(4-(2,4-difluorophenyl)-1-piperazinyl)methyl]-1,2,4-triazolo[4,3-a]pyridine, reference compound]

- SUVmax in brain ([1]; rat PET, n=9): 1.8±0.2
- maximum SUV (time-activity curves) ([1]; rat PET, thalamus at 2 min post-injection): 2.3
- average accumulation in the rat brain ([2]; i.v. [11C]1, brain at 5 min): 0.49±0.07 % ID/g
- highest accumulation in heart ([2]; rat, i.v. [11C]1, heart): 0.58±0.05 % ID/g
- highest accumulation in kidney ([2]; rat, i.v. [11C]1, kidney): 1.05±0.07 % ID/g
- highest accumulation in liver ([2]; rat, i.v. [11C]1, liver): 2.73±0.02 % ID/g
- highest accumulation in lung ([2]; rat, i.v. [11C]1, lung (maximum at 20 min)): 0.59±0.04 % ID/g
- highest accumulation in spleen ([2]; rat, i.v. [11C]1, spleen): 0.67±0.05 % ID/g
SMILES: Cn1c(CN2CCC(c3ccc(C(F)(F)F)cc3O[11CH3])CC2)nc2ncccc21 [[^11C]1]

- Log P [3]: 3.86
- plasma protein binding ([4]; equilibrium dialysis, 10 μM): 88.7%
- fraction unbound at 5 h, 10 μM ([4]; read-out: plasma free fraction): > 0.1
- stability in rat plasma [5]: much more stable than diltiazem
- microsomal stability [7]: reasonable microsomal stability
SMILES: COc1cc(C(F)(F)F)ccc1C1CCN(Cc2nc3nccc4c3n2CCC4)CC1 [Compound 2]
- EC50 [6]: 5 nM

- log P ([3]; n-octanol/water): 3.3
- P-gp substrate assessment / P-gp ATPase activity [8]: a potential P-gp substrate
SMILES: COc1cc(C(F)(F)F)ccc1OC[C@@H]1[C@H]2CN(Cc3nc4ncccc4n3C)C[C@@H]12 [Compound 7]
